# Publication PMC3472974, “The Bite of the Honeybee: 2-Heptanone Secreted from Honeybee Mandibles during a Bite Acts as a Local Anaesthetic in Insects and Mammals” (PLoS ONE, 2012)
# Like-named read-outs stand apart in the source and are kept apart here. Marks after values point to notes of the source that are not given here.
# Experiments:
# [1] = no reference given; cited from earlier work
# [2] = system: Varroa destructor; assay: Gravitational reflex of Varroa mites after topical application; type: in vivo
# Description: We tested 2-H on a far smaller arthropod that parasitizes honeybees, the mite, Varroa destructor. When 0.025 µL of 2-H was applied topically to the sternum of mites (n = 10) fixed ventral side up, the gravitational reflex–the rhythmic expansion of the thorax and abdomen [15]–was distorted (Fig. 3d). When the concentration was increased to 0.061 µL, the gravitational reflex completely malfunctioned and the Varroa mites (n = 10) were totally paralysed within 30–40 s (Fig. 3e) with no recovery, even after 12 h of observation. We applied larger concentrations of 2-H to the Varroa mites topically because the mites’ small size made it impossible to inject 2-H into the haemolymph.
# [3] = molecular target: T1, hNav1.6 channels (Homo sapiens, UniProt Q9UQD0); assay: Patch-clamp (PatchXpress 7000A) on transfected CHO cells, hNav1.6; type: cell-based; details: for IC50: CHO cells, n = 6, mean ± SEM, 2-H exposure limited to 3 min, read-out: hNav1.6 IC50 (converted); for times less active than lidocaine: hNav1.6
# T1 construct: expressed in transfected cells; host or cells: CHO-K1 (ATCC CCL-61)
# T1 sequence (Q9UQD0 whole entry): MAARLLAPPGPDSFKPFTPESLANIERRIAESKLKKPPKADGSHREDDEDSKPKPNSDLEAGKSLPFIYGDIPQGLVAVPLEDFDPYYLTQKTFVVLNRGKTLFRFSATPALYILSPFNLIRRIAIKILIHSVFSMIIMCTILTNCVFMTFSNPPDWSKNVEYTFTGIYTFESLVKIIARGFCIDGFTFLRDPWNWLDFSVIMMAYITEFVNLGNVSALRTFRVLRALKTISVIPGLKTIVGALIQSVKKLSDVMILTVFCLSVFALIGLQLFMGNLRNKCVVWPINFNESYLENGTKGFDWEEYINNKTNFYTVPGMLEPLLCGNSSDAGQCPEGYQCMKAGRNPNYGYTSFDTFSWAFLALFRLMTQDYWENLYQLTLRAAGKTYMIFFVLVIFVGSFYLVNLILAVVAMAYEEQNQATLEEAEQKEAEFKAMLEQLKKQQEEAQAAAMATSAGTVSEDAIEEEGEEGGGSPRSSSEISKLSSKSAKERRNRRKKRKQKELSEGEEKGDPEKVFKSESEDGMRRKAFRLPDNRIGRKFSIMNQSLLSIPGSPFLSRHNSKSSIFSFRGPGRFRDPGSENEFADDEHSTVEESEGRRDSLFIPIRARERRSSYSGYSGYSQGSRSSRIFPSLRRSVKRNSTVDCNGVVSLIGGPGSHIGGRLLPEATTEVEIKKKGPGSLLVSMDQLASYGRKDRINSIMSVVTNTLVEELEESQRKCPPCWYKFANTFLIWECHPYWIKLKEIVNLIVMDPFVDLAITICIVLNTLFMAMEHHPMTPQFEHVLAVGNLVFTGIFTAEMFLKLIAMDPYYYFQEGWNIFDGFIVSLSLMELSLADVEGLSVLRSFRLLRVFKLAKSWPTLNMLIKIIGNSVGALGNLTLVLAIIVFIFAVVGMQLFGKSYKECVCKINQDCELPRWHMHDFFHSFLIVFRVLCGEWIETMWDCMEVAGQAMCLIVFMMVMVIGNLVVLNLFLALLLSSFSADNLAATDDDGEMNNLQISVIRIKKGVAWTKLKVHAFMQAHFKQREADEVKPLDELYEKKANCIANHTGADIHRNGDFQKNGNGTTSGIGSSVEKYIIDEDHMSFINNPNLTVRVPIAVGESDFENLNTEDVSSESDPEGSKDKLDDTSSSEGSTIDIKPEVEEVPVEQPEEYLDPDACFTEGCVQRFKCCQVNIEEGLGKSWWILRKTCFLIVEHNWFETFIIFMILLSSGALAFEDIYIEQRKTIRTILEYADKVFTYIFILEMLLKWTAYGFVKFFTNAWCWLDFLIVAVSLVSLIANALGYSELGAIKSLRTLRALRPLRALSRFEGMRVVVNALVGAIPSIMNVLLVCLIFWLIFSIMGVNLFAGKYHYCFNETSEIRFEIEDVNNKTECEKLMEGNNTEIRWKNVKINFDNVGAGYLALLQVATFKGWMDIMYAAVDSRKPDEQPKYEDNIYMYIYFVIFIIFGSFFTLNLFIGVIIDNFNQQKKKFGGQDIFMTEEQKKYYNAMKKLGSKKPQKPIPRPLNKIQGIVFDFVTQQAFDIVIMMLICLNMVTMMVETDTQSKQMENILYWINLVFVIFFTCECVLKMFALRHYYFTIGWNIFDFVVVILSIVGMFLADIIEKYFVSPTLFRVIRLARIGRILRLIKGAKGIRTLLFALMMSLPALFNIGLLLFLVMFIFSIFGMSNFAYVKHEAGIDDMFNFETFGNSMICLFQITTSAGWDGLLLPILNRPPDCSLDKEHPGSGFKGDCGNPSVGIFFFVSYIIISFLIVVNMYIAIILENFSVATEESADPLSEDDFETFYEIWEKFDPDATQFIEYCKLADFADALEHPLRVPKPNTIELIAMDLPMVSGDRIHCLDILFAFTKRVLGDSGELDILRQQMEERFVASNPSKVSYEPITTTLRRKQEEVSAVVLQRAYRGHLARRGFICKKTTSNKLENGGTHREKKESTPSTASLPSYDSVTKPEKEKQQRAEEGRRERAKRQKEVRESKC
# Excerpt: To test whether 2-H can act by blocking VGNaCs, the PatchXpress 7000A was used. Mammalian CHO (Chinese hamster ovary) transfected with ion hNav1.2 and hNav1.6 channels cDNAs (SCN2A and SCN8A genes) were exposed to 2-H under both tonic and phasic conditions. The mammalian CHO-K1 epithelial embryonic cell line (ATCC number CCL-61) from Cricetulus griseus was obtained from ATCC, Manassas, VA. CHO-K1 cells were transfected with either hNav1.2 or hNav1.6 channel cDNA (SCN2A and SCN8A genes, respectively) and were exposed to 2-H under both tonic and phasic conditions.
# The effects of 2-H were evaluated on hNav1.2 at 0.73, 1.46, 2.19, and 2.92 mg/mL and on hNav1.6 channels at 0.1, 0.36, 0.73, and 1.46 mg/mL, with each concentration tested in at least six cells (n = 6). Cells were exposed to each concentration of 2-H and measurements of the inward current were obtained within the first 3 min of exposure. […] Since the PatchXpress has open cell chambers where the testing occurs, there is no way to hermetically seal the experiment.
# Based on this analysis, we estimated the IC50.
# [4] = system: honeybees; parameters: method as in earlier work; details: cited from earlier work
# [5] = system: honeybees; assay: Recruitment of defensive honeybees at the colony entrance, BeeSCAN counters; type: in vivo, Apis mellifera; details: control 46.42
# Description: We first tested the dominant hypothesis that honeybees secrete 2-H as an alarm pheromone that recruits other honeybees in the face of a potential threat. We monitored honeybee response to different doses of 2-H applied at colony entrances. In control colonies, which were not exposed to 2-H, an average of 46.42 bees left the colony per minute (n = 5, SEM = 0.43). There was no statistical difference, 10 minutes after application, between the mean number of bees recruited in control colonies and those recruited in colonies exposed to 0.1 µL 2-H (mean = 47.18, n = 5, SEM = 0.36, p = 1.000). In contrast, higher doses of 2-H acted as a repellent.
# We conducted field experiments at the apiary, in which we used electronic monitoring devices (BeeSCAN v2.03) to test whether the presence of 2-H on the colony flight boards stimulated recruitment of defensive honeybees. The monitoring devices counted the number of honeybees exiting the beehive once per minute for 10 minutes for each of the five colonies per treatment. […] To apply 2-H, we followed the standard methodology described in previous experiments.
# [6] = system: isolated rat sciatic nerve; assay: tissue or blood
# Excerpt: The ex vivo studies used both male and female rats weighing between 230 and 250 g. Animals were sacrificed using light anaesthesia with CO2 and cervical dislocation. The sciatic nerve of the rat, consisting of 27,000 sciatic nerve fibres, was isolated in a three-chamber recording bath (Fig. 5b). The sciatic nerves were dissected from the spinal cord to the knee, immersed in oxygenated (O2, 100%) saline solution and cleaned. The composition of the saline was (in mmoles/L): 136 NaCl, 11 glucose, 4.7 KCl, 2.4 CaCl2, 1.1 MgCl2, 1 NaHCO3, 10 HEPES, pH = 7.2). All experiments were performed at a constant temperature, 26.0±1.0°C. […] The nerve was mounted in a three-chambered recording bath made of Plexiglas, which is described elsewhere, [30]. The recording bath consisted of the recording (R in Fig. 5b), perfusion (P) and stimulating (S) chambers, each with a volume of 12 mL. The nCAP (Fig. 5a) was generated by stimulating (1 Hz) the part of the nerve in the stimulating chamber and was recorded in the recording chamber every second using standard electrophysiological methods. The nCAP was monitored throughout the experiment as an indication of the vitality of the nerve fibres in the recording bath. […] Immediately after the nCAP was eliminated, the saline+compound was removed and the nerve was washed out. Then, recovery of the nCAP in normal stagnant saline was monitored for 24 h. It is worth noting that the recording bath is designed in such a way that the chambers with the saline and 2-H (the nerves and the recording electrodes) was shielded from the air by using the cover (c in Fig. 5b) to avoid evaporation of the volatile 2-H. The saline with 2-H was added through a small diameter opening on the cover.
# For further data analysis, the amplitude of the nCAPs, estimated from baseline to peak (Fig. 5), were measured at a specific time (every 1.0 s, 1.0 min or 1.0 h) and were expressed as a percentage of the amplitude of the nCAP at t = 0 (which was considered to be 100%). In the neuropharmacological experiments, time t = 0 was considered the time before application of the compound under investigation. […] The data were fitted in the program GraphPad Prism 5.0 using a one-phase exponential decay equation for the IC50. Data were analyzed by one-way ANOVA and Bonferroni’s post hoc tests, when required. Significance was determined using Students t-test or ANOVA as appropriate (p<0.05).
# [7] = system: nerves of the rat tail; parameters: method as in PMID 6093852; details: cited from earlier work
# [8] = system: rat; details: oral rat; no reference given; cited from earlier work
structure (smiles),measurement,setting,value
"CCCCCC(C)=O [2-H, 2-heptanone]",logP,[1],1.98
same,effect on gravitational reflex,"[2]; 0.025 µL applied topically to the sternum, n = 10",distorted
same,recovery from paralysis,"[2]; 0.061 µL applied topically, 12 h of observation",no recovery
same,IC50,[3]; Phasic Experiment,4.64 mM
same,IC50,[3]; Tonic Experiment,7.18 mM
same,times less active than lidocaine,[3]; phasic experiments,7.57 times
same,times less active than lidocaine,[3]; tonic experiments,2.82 times
same,low concentration easily detectable by honeybees,[4],4.049 µg/mL
same,mean number of bees leaving the colony per minute,"[5]; 0.1 µL 2-H at colony entrance, 10 minutes after application, p = 1.000",47.18 per minute
same,mean number of honeybees exiting the hive per minute,"[5]; 10 µL 2-H at colony entrance, p = 0.003",42.54 per minute
same,mean number of honeybees exiting the hive per minute,"[5]; 1000 µL 2-H at colony entrance, p = 0.002",40.88 per minute
same,neurotoxic action in 24 h monitoring of nerve vitality,[6],no neurotoxic action
same,IT0 (time required for 100% inhibition of the nCAP),[6]; 1.41 mg/mL,517.5 ± 25.62 s
same,IT50 (time to inhibit nCAP amplitude to 50% of control),[6]; 1.41 mg/mL,109.7 ± 2.87 s
same,IT0 (time required for 100% inhibition of the nCAP),[6]; 2.28 mg/mL,358.8 ± 18.07 s
same,IT50 (time to inhibit nCAP amplitude to 50% of control),[6]; 2.28 mg/mL,108.9 ± 0.22 s
same,IT0 (time required for 100% inhibition of the nCAP),[6]; 3.41 mg/mL,221.88 ± 7.32 s
same,IT50 (time to inhibit nCAP amplitude to 50% of control),[6]; 3.41 mg/mL,39.14 ± 4.84 s
same,time to complete elimination of the nCAP,[6]; 3.41 mg/mL,221.88 s
same,IT0 (time required for 100% inhibition of the nCAP),[6]; 10 mg/mL,195 ± 12 s
same,IT50 (time to inhibit nCAP amplitude to 50% of control),[6]; 10 mg/mL,22.3 ± 1.1 s
same,IC50,"[6]; Rattus norvegicus, read-out: IC50 from concentration-response curves of the IT0 values",469 µg/mL
same,IT0,"[6]; Table 3, 3.41 mg/mL, unit not given in Table 3, s",221.88±7.32^a seconds
same,IT50,"[6]; Table 3, 3.41 mg/mL, unit not given in Table 3, seconds per Table 2",39.14 ± 4.84 s
same,recovery of nCAP amplitude after wash with normal saline,"[6]; after elimination of nCAP, remained at this level for at least 24 h, n = 8",89.51%
same,neurotoxic effects in vivo,[7],no neurotoxic effects
same,acute LD50,[8],1670 mg/kg
